Results as given in the NIST ThermoML archive (doi:10.1021/je060271a).

Details: 323.15 K, Liquid, Vibrating tube method

CCCCCCC(=O)OCC(COC(=O)CCCCCC)(COC(=O)CCCCCC)COC(=O)CCCCCC [pentaerythritol tetraheptanoate]
Details | mass density [kg/m3]
21056 kPa | 969.3
21077 kPa | 969.3
21094 kPa | 969.4
21132 kPa | 969.3
21278 kPa | 969.4
21299 kPa | 969.5
21316 kPa | 969.5
21334 kPa | 969.5
21352 kPa | 969.4
21372 kPa | 969.6
21390 kPa | 969.6
21408 kPa | 969.8
21430 kPa | 969.6
21448 kPa | 969.6
21466 kPa | 969.5
21483 kPa | 969.6
21504 kPa | 969.5
21522 kPa | 969.6
21540 kPa | 969.7
21562 kPa | 969.6
21580 kPa | 969.6
21601 kPa | 969.7
21619 kPa | 969.8
21637 kPa | 969.7
21659 kPa | 969.7
21677 kPa | 969.8
21695 kPa | 969.8
21716 kPa | 969.7
21734 kPa | 969.8
21753 kPa | 969.7
21775 kPa | 969.9
21793 kPa | 969.8
21830 kPa | 969.9
21852 kPa | 969.8
21871 kPa | 969.8
21930 kPa | 970
21950 kPa | 969.9
21968 kPa | 969.8
21990 kPa | 969.9
22070 kPa | 970
22089 kPa | 969.9
22112 kPa | 969.9
22131 kPa | 970
22150 kPa | 969.9
22173 kPa | 970
22193 kPa | 970
22213 kPa | 970
22232 kPa | 970
22275 kPa | 970.2
22313 kPa | 970.1
22336 kPa | 970.1
22356 kPa | 970.1
22380 kPa | 970.1
22399 kPa | 970.2
22419 kPa | 970.2
22442 kPa | 970.1
22463 kPa | 970.2
22483 kPa | 970.2
22502 kPa | 970.2
22522 kPa | 970.2
22546 kPa | 970.1
22566 kPa | 970.2
22585 kPa | 970.4
22609 kPa | 970.3
22629 kPa | 970.3
22653 kPa | 970.3
22717 kPa | 970.3
22758 kPa | 970.4
22779 kPa | 970.4
22804 kPa | 970.4
22824 kPa | 970.4
22848 kPa | 970.5
22869 kPa | 970.4
22889 kPa | 970.4
22913 kPa | 970.4
23043 kPa | 970.5
23090 kPa | 970.5
23337 kPa | 970.7
23406 kPa | 970.7
23640 kPa | 970.9
23662 kPa | 970.8
23684 kPa | 970.9
23706 kPa | 970.9
23734 kPa | 970.9
23970 kPa | 971.1
23993 kPa | 971.2
24020 kPa | 971.1
24043 kPa | 971
24070 kPa | 971.1
24093 kPa | 971.2
24116 kPa | 971.2
24143 kPa | 971.2
24166 kPa | 971.1
24190 kPa | 971.2
24215 kPa | 971.1
24242 kPa | 971.3
24265 kPa | 971.3
24289 kPa | 971.3
24317 kPa | 971.3
24340 kPa | 971.4
24364 kPa | 971.3
24387 kPa | 971.3
24415 kPa | 971.3
24466 kPa | 971.4
24515 kPa | 971.5
24540 kPa | 971.4
24564 kPa | 971.4
24616 kPa | 971.5
24669 kPa | 971.6
24770 kPa | 971.5
25086 kPa | 971.7
25112 kPa | 971.8
25142 kPa | 971.7
25168 kPa | 971.8
25198 kPa | 971.9
25224 kPa | 971.9
25249 kPa | 971.7
25275 kPa | 971.9
25306 kPa | 971.9
25330 kPa | 971.9
25356 kPa | 971.9
25439 kPa | 971.9
25465 kPa | 972
25496 kPa | 972
25522 kPa | 972.1
25549 kPa | 972
25575 kPa | 972
25607 kPa | 972.1
25663 kPa | 972.2
25691 kPa | 972.2
25743 kPa | 972.1
25775 kPa | 972.2
25801 kPa | 972.2
26029 kPa | 972.3
26061 kPa | 972.3
26121 kPa | 972.4
26148 kPa | 972.5
26175 kPa | 972.3
26208 kPa | 972.5
26235 kPa | 972.4
26263 kPa | 972.6
26296 kPa | 972.3
26325 kPa | 972.4
26352 kPa | 972.5
26386 kPa | 972.5
26413 kPa | 972.5
26441 kPa | 972.4
26475 kPa | 972.6
26503 kPa | 972.6
26531 kPa | 972.6
26559 kPa | 972.6
26594 kPa | 972.6
26622 kPa | 972.6
26658 kPa | 972.7
26682 kPa | 972.6
26717 kPa | 972.7
26745 kPa | 972.7
26901 kPa | 972.8
26930 kPa | 972.9
26959 kPa | 972.9
26995 kPa | 972.9
27304 kPa | 973.1
27340 kPa | 973.1
27371 kPa | 973
27401 kPa | 973.1
27437 kPa | 973.1
27468 kPa | 973.1
27498 kPa | 973
27534 kPa | 973.2
27632 kPa | 973.3
27663 kPa | 973.3
27694 kPa | 973.3
27794 kPa | 973.3
27926 kPa | 973.5
27963 kPa | 973.5
27996 kPa | 973.5
28065 kPa | 973.4
28096 kPa | 973.6
28128 kPa | 973.5
28160 kPa | 973.5
28199 kPa | 973.6
28231 kPa | 973.6
28270 kPa | 973.6
28302 kPa | 973.6
28334 kPa | 973.7
28471 kPa | 973.7
28511 kPa | 973.9
28544 kPa | 973.6
28577 kPa | 973.8
28617 kPa | 973.8
28650 kPa | 973.8
28689 kPa | 973.9
28723 kPa | 973.8
28864 kPa | 973.9
29014 kPa | 974
29565 kPa | 974.4
29607 kPa | 974.4
29642 kPa | 974.4
29686 kPa | 974.4
29724 kPa | 974.5
29761 kPa | 974.5
29798 kPa | 974.5
29834 kPa | 974.6
29878 kPa | 974.6
29915 kPa | 974.6
29959 kPa | 974.6
29995 kPa | 974.7
30032 kPa | 974.6
30076 kPa | 974.8
30114 kPa | 974.7
30151 kPa | 974.7
30237 kPa | 974.8
30274 kPa | 974.7
30312 kPa | 974.8
30358 kPa | 974.7
30396 kPa | 974.8
30434 kPa | 974.9
32025 kPa | 975.7
32076 kPa | 975.7
32119 kPa | 975.8
32170 kPa | 975.9
32213 kPa | 975.8
32256 kPa | 975.9
32308 kPa | 976
